Data reported in patent US11078250B2, “High-activity long-acting hypoglycemic fusion protein as well as preparation method and medical application thereof” (China Pharmaceutical University, priority 2016, dated 2021).
Values joined by “and” are separate entries in the source; they are usually repeats but may differ in a detail not shown here. Equal entries are not always repeated.

Columns and labels:
[1] = test system: type II diabetic mice C57BL/KsJ-db/db (BKS.Cg-Dock7m+/+Leprdb/JNju); test: Acute hypoglycemic test in type II diabetic model mice; assay type: in vivo, mouse
Procedure: (§1) 50 six-week-old type II diabetic mice C57BL/KsJ-db/db (namely, S.Cg-Dock7^m+/+Lepr^db/JNju mouse) and 10 control mice C57BLKS/JNju are purchased from Nanjing Biomedical Research Institute of Nanjing University (certificate number: 201602819, and license number: SCXK (Su) 2015-0001). The mouse are fed in a SPF-grade animal house with a humidity of 40-60% at room temperature of 25° C. for 12 h each under light and dark conditions, and an experiment is carried out after adaptive feeding for one week. Blood glucose concentration is measured using a Roche Accu-Chek® Performa glucometer and blood glucose test paper. Experiment grouping and administration modes are seen in Table 1.
Blood glucose levels of each group of mouse are detected before administration. As shown in Table 2 and FIG. 7, blood glucose levels of a model group, Ex-4, EX-mhIgG1Fc and EX-L21K-mhIgG1Fc (5-20 nmol/kg) are respectively 24±0.81, 24.53±1.20, 23.31±1.05, 23.04±1.23, 22.41±1.51 and 24.99±1.43 mM. There is a significant difference (P<0.0001) compared with 8.58±0.25 mM in a normal control group. […] Moreover, there is no difference between the drug groups and the model group, and subsequent experiments can be carried out.
After mouse are administrated, blood glucose levels after administration for 1, 2, 4, 8, 12, 24, 36, 48, 60, 72, 96 and 120 h are continuously monitored. […] The blood glucoses of mouse in Ex-4 group are gradually raised back to a level before administration, and the blood glucoses of mouse in EX-mhIgG1Fc group are gradually raised back to a level before administration after administration for 48 h. The hypoglycemic effects of various dosage group of EX-L21K-mhIgG1Fc are more durable, wherein, the hypoglycemic effect of 5 nmol/kg EX-L21K-mhIgG1Fc lasts until 72 h after administration (P<0.01 vs model group), the hypoglycemic effects of 10 nmol/kg EX-L21K-mhIgG1Fc (P<0.01 vs model group) and 20 nmol/kg EX-L21K-mhIgG1Fc (P<0.0001 vs model group) are still present after administration for 96 h.
Compared with Ex-4, AUCs0-24 h of various groups of EX-mhIgG1Fc and EX-L21K-mhIgG1Fc (5-20 nmol/kg) drugs has no significant difference.

[2] = test system: type II diabetic mice C57BL/KsJ-db/db (BKS.Cg-Dock7m+/+Leprdb/JNju); test: Intraperitoneal glucose tolerance test (IPGTT); assay type: in vivo, mouse; conditions: for IPGTT glucose AUC0-180 min: n=8, mean ± SEM; for Fasting blood glucose vs model group: fasted 18 h, Ex-4 and EX-mhIgG1Fc 10 nmol/kg, EX-L21K-mhIgG1Fc 5-20 nmol/kg, ip, P<0.0001
Procedure: as §1
Various groups of animals are fasted overnight for 18 h before test. Firstly, normal saline, Ex-4, EX-mhIgG1Fc and EX-L21K-mhIgG1Fc are respectively intraperitoneally injected. After administration for 2 h, 1.5 g/kg glucose is intraperitoneally injected to each mouse, blood is taken via caudal vein, and blood glucose concentrations in −120, 0, 15, 30, 45, 60, 90, 120 and 180 min are recorded. During the test, animals are normally dieted and supplied with water.
Area under the curve is further applied for analysis.

[3] = cited from earlier work
[4] = 0 h (before administration), 10 nmol/kg ip, n=8, mean ± SEM
[5] = 1 h after administration, 10 nmol/kg ip
[6] = 2 h after administration, 10 nmol/kg ip
[7] = 4 h after administration, 10 nmol/kg ip
[8] = 8 h after administration, 10 nmol/kg ip
[9] = 12 h after administration, 10 nmol/kg ip
[10] = 24 h after administration, 10 nmol/kg ip
[11] = 36 h after administration, 10 nmol/kg ip
[12] = 48 h after administration, 10 nmol/kg ip
[13] = 60 h after administration, 10 nmol/kg ip
[14] = 72 h after administration, 10 nmol/kg ip
[15] = 96 h after administration, 10 nmol/kg ip
[16] = 120 h after administration, 10 nmol/kg ip
[17] = Ex-4 and EX-mhIgG1Fc 10 nmol/kg, EX-L21K-mhIgG1Fc 5-20 nmol/kg, ip
[18] = 10 nmol/kg ip 120 min before 1.5 g/kg glucose ip

EX-L21K-mhIgG1Fc: fusion protein of Exendin-4 mutant EX-L21K, Gly-rich linker peptide, optimally mutated human IgG1 hinge region and constant regions CH2 and CH3; SEQ ID NO: 11
Blood glucose ([1]; 0 h (before administration), 5 nmol/kg ip, n=8, mean ± SEM): 23.04 ± 1.23 mM and 23.04 mM
Blood glucose [1, 4]: 22.41 ± 1.51 mM and 22.41 mM
Blood glucose ([1]; 0 h (before administration), 20 nmol/kg ip, n=8, mean ± SEM): 24.99 ± 1.43 mM and 24.99 mM
Time after administration to which hypoglycemic effect lasts ([1]; 5 nmol/kg ip, P<0.01 vs model group): 72 h
Blood glucose AUC0-24 h ([1]; 5 nmol/kg ip, n=8, mean ± SEM): 296.69 ± 34.39 mM·h
Time after administration to which hypoglycemic effect lasts ([1]; 10 nmol/kg ip): ≥ 96 h
Blood glucose AUC0-24 h ([1]; 10 nmol/kg ip, n=8, mean ± SEM): 237.34 ± 16.87 mM·h
Time after administration to which hypoglycemic effect lasts ([1]; 20 nmol/kg ip, P<0.0001 vs model group): ≥ 96 h
Blood glucose AUC0-24 h ([1]; 20 nmol/kg ip, n=8, mean ± SEM): 230.80 ± 20.09 mM·h
Time after administration to which hypoglycemic effect lasts ([1]; 5-20 nmol/kg ip): 96 h
Blood glucose ([1]; 1 h after administration, 5 nmol/kg ip): 15.18 mM
Blood glucose [1, 5]: 15.2 mM
Blood glucose ([1]; 1 h after administration, 20 nmol/kg ip): 14.98 mM
Blood glucose ([1]; 2 h after administration, 5 nmol/kg ip): 11.28 mM
Blood glucose [1, 6]: 14.3 mM
Blood glucose ([1]; 2 h after administration, 20 nmol/kg ip): 12.46 mM
Blood glucose ([1]; 4 h after administration, 5 nmol/kg ip): 9.16 mM
Blood glucose [1, 7]: 8.48 mM
Blood glucose ([1]; 4 h after administration, 20 nmol/kg ip): 9.54 mM
Blood glucose ([1]; 8 h after administration, 5 nmol/kg ip): 9.91 mM
Blood glucose [1, 8]: 8.01 mM
Blood glucose ([1]; 8 h after administration, 20 nmol/kg ip): 8.73 mM
Blood glucose ([1]; 12 h after administration, 5 nmol/kg ip): 13.06 mM
Blood glucose [1, 9]: 10.13 mM
Blood glucose ([1]; 12 h after administration, 20 nmol/kg ip): 53 mM
Blood glucose ([1]; 24 h after administration, 5 nmol/kg ip): 13.58 mM
Blood glucose [1, 10]: 8.5 mM
Blood glucose ([1]; 24 h after administration, 20 nmol/kg ip): 7.49 mM
Blood glucose ([1]; 36 h after administration, 5 nmol/kg ip): 17.34 mM
Blood glucose [1, 11]: 12.9 mM
Blood glucose ([1]; 36 h after administration, 20 nmol/kg ip): 11.95 mM
Blood glucose ([1]; 48 h after administration, 5 nmol/kg ip): 16.46 mM
Blood glucose [1, 12]: 12.96 mM
Blood glucose ([1]; 48 h after administration, 20 nmol/kg ip): 12.2 mM
Blood glucose ([1]; 60 h after administration, 5 nmol/kg ip): 22.39 mM
Blood glucose [1, 13]: 21.36 mM
Blood glucose ([1]; 60 h after administration, 20 nmol/kg ip): 21.5 mM
Blood glucose ([1]; 72 h after administration, 5 nmol/kg ip): 18.85 mM
Blood glucose [1, 14]: 17.4 mM
Blood glucose ([1]; 72 h after administration, 20 nmol/kg ip): 14.1 mM
Blood glucose ([1]; 96 h after administration, 5 nmol/kg ip): 18.71 mM
Blood glucose [1, 15]: 17.33 mM
Blood glucose ([1]; 96 h after administration, 20 nmol/kg ip): 14.46 mM
Blood glucose ([1]; 120 h after administration, 5 nmol/kg ip): 23.35 mM
Blood glucose [1, 16]: 22.96 mM
Blood glucose ([1]; 120 h after administration, 20 nmol/kg ip): 22.76 mM
Blood glucose AUC0-72 h compared with model group [1, 17]: significantly reduced
Blood glucose AUC0-120 h compared with model group [1, 17]: significantly reduced
IPGTT glucose AUC0-180 min ([2]; 5 nmol/kg ip 120 min before 1.5 g/kg glucose ip): 2338 ± 181.2 mM·min
IPGTT glucose AUC0-180 min [2, 18]: 2035 ± 169.6 mM·min
IPGTT glucose AUC0-180 min ([2]; 20 nmol/kg ip 120 min before 1.5 g/kg glucose ip): 2082 ± 119.9 mM·min
Fasting blood glucose vs model group [2]: significantly reduced

Exendin-4 [Ex-4, reference compound]
Blood glucose [1, 4]: 24.53 ± 1.20 mM and 24.53 mM
Blood glucose AUC0-24 h ([1]; 10 nmol/kg ip, n=8, mean ± SEM): 374.46 ± 6.20 mM·h
Blood glucose [1, 5]: 10.63 mM
Blood glucose [1, 6]: 10.79 mM
Blood glucose [1, 7]: 10.71 mM
Blood glucose [1, 8]: 15.31 mM
Blood glucose [1, 9]: 24.43 mM
Blood glucose [1, 10]: 20.48 mM
Blood glucose [1, 11]: 26.59 mM
Blood glucose [1, 12]: 24.76 mM
Blood glucose [1, 13]: 27.19 mM
Blood glucose [1, 14]: 25.34 mM
Blood glucose [1, 15]: 23.68 mM
Blood glucose [1, 16]: 24.83 mM
Blood glucose AUC0-72 h compared with model group [1, 17]: no significant change
Blood glucose AUC0-120 h compared with model group [1, 17]: no significant change
Time after administration at which hypoglycemic effect is exhibited [1, 17]: 1 h
IPGTT glucose AUC0-180 min [2, 18]: 2058 ± 109.5 mM·min
Fasting blood glucose vs model group [2]: significantly reduced
in-vivo half-life period [3]: 3.3˜4 hours
